What all share (format): in vivo
The test system of test [1] is Arabidopsis thaliana Columbia-0. Put plainly: Arabidopsis pot experiment (rosette size, soil phosphate, anthocyanin). The protocol:
Regular Arabidopsis, soybean and maize pot experiments used an unfertilized potting soil, which was supplemented at the start of the experiment with 50 ml H2O containing 0.25 g/l NH4NO3 and 0.44 g/l (high phosphate) or no (maize and soybean) or 0.11 g/l KH2PO (Arabidopsis) for low phosphate conditions. For the sand-based maize pot experiment, sand was supplemented with 50 ml H2O containing 0.25 g/l NH4NO3 and 0.38 g/l (high phosphate) or 0.02 g/l (low phosphate) KH2PO4. Potassium was balanced via addition of KCl. Compound concentration was 10 μM, calculated based on the total water content after watering, and was added at the start of the experiment (Arabidopsis) or once a week (maize). Indexed chlorophyll contents were received via a SPAD 502 Plus Chlorophyll Meter. All parameters in the sand experiment, except the rate of leaf 4 (measured the first 4 days after emergence), were measured 19 days after sowing. Measurements in the pot experiments with potting soil were done after 4 weeks of growth, except for leaf 5, which was measured at 26 days. The long term maize pot experiment was performed on the automated Phenovision platform (see Mertens et al, 2021, https://doi.org/10.3389/fpls.2021.640914) with maize cultivars B104 and DKC2931. End point measurements occurred after 90 days (B104) or 70 days (DKC2931). Plants were grown on an unfertilized potting soil, which was fertilized bi-weekly with 50 mL modified Hoagland solution (2.5× concentrated; but with 0.25 mM KH2PO4). Col-0 ecotype Arabidopsis seeds were sown in 96-well plates containing 150 μl of low phosphate modMS liquid medium containing 1% of sucrose. Compounds was added in 50 μM concentration (1% DMSO). 7 days after germination, plates were scanned using a flatbed scanner (EPSON Expression 11000XL) and wells containing non-germinated seedlings were excluded from the following analysis. Plants were removed from each well and 50 μl of medium was recovered from each well and used for molybdenum blue staining as described in Plant Physiology 2008, 146:1673-1686. To measure the phosphate level in soil, Olsen P extraction was used on 1 g of air dried soil, 500 ul of extract was used for molybdenum blue staining as described in The Plant cell 2013, 25:1641-1656. Values were expressed relative to the low phosphate control. Col-0 ecotype Arabidopsis seeds were sown in 96-well plates containing 150 μl of low phosphate modMS liquid medium containing 1% of sucrose. […] Extraction and quantification of anthocyanin levels was carried out according to The Plant cell 2013, 25:1641-1656. Anthocyanin levels were quantified by measuring absorption at 530 and 657 nm using a spectrophotometer and normalized to fresh weight input, and expressed relative to the low phosphate control. […]

A further test concerns rice cultivar Nipponbare. Kind of test: Rice plate experiment (plant height). Conditions: low phosphate 0.001 mM, 10 μM compound, 11 days after germination. The protocol:
All Arabidopsis plant experiments were performed using the Arabidopsis thaliana Columbia-0 background. The Arabidopsis pSPX1::GUS line is described in the […] 2008, 54: 965-975. For rice, the cultivar Nipponbare was used. For maize, the cultivars DKC 2931 and 8104 were used for regular pot experiments and sand-based pot experiments, respectively. For soybean, the cultivar Primus was used. […] The medium was solidified due to the addition of 0.6% Gelrite, unless stated otherwise. […]
Arabidopsis primary root growth experiments were done on MS1/2 on vertical standing plates and roots were measured 11 days after germination. Roots were imaged using a flatbed scanner (EPSON Expression 11000XL) and root length was measured using ImageJ software. Arabidopsis shoot biomass was determined in 11 days after germination and growth on vertical standing plates with modMS. Arabidopsis leaf area was measured 21 days after germination on horizontal plates with modMS medium. Plates were scanned from the top using a flatbed scanner (EPSON Expression 11000XL) and the visible leaf area was measured using ImageJ software. […] Plant height was measured 11 days after germination. […] Plant height was measured 13 days after germination. […]

The subject of test [2] is Arabidopsis thaliana Columbia-0. Kind of test: Arabidopsis 96-well plate anthocyanin quantification. The protocol: Col-0 ecotype Arabidopsis seeds were sown in 96-well plates containing 150 μl of low phosphate modMS liquid medium containing 1% of sucrose. Compounds was added in 50 μM concentration (1% DMSO). Eight plants per repeat were collected 7 days after germination and put into a fresh Eppendorf. Extraction and quantification of anthocyanin levels was carried out according to The Plant cell 2013, 25:1641-1656. Anthocyanin levels were quantified by measuring absorption at 530 and 657 nm using a spectrophotometer and normalized to fresh weight input, and expressed relative to the low phosphate control. For pot experiments, the same procedure was followed with one 4-week old plant per sample.

Regarding `CCN(CCCNc1ncnc2nc(N)ccc12)c1ccccc1` [Example 1], the Relative anthocyanin level in test [1] (Arabidopsis pot, 4-week old plant, relative to low phosphate control (=1)) was 0.7; in test [2] (Arabidopsis 96-well plate, low phosphate, 50 μM compound, 7 days after germination, relative to control (=1)) it was 0.6. Further, the “Phosphate level in soil (relative value)” value in test [1] (Arabidopsis pot, Olsen P, after 4 weeks, relative to low phosphate control (=1)) is recorded as 0.8. Also, the Rosette size in test [1] (Arabidopsis pot, low phosphate, 10 μM compound, 4 weeks) is 17 cm^2. Also, the “Anthocyanin level in the leaves (in words)” value in test [1] (plants grown in pots) and in test [2] (96-well plate assay) was “reduced” in each case. The molecule also yielded a Plant height in the test with rice cultivar Nipponbare of 15 cm.

(Values after patent US20240306641A1, “P-BOOSTER” (EUROCHEM ANTWERPEN, priority 2021, published 2024).)
